Data from patent EP0444854B1, “6-Substituted hexahydrobenz[cd]indoles” (ELI LILLY AND COMPANY, priority 1990, dated 1991).

The compounds below were run against T1, 5-HT1A receptors (Rattus norvegicus, UniProt P19327) (assay: Inhibition of 3H-8-OH-DPAT binding to synaptosomal membranes from rat cerebral cortex). Conditions: 0.4 nM 3H-8-OH-DPAT, 37°C, 10 min, read-out: IC50 (concentration in nanomoles which inhibited binding of 8-OH-DPAT by 50%).
T1 construct: from tissue; host or cells: rat cerebral cortex, crude synaptosomal membranes
T1 sequence (P19327 1-422): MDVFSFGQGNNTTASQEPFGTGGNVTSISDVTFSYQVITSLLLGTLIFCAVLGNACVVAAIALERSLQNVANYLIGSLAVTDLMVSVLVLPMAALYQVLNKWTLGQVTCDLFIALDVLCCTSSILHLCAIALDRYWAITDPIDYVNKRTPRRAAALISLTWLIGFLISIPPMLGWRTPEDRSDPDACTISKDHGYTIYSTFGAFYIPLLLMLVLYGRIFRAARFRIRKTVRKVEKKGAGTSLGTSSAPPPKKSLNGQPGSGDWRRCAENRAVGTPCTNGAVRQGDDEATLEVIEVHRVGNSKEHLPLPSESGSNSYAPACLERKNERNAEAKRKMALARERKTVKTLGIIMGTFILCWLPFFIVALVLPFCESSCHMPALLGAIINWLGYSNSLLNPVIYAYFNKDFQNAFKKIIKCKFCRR
Design: species or system Male Sprague-Dawley rats
Method: This general procedure is set forth in Wong et al., J. Neural Transm. 71:207-218 (1988).
Male Sprague-Dawley rats (110-150 g) from Harlan Industries (Cumberland, IN) were fed a Purina Chow ad libitum for at least 3 days before being used in the studies. Rats were killed by decapitation. The brains were rapidly removed, and the cerebral cortices were dissected out at 4°C.
Brain tissues were homogenized in 0.32 M sucrose. After centrifugation at 1000 x g for 10 min and then at 17000 x g for 20 min, a crude synaptosomal fraction was sedimented. The pellet was suspended in 100 vol of 50 mM Tris-HCl, pH 7.4, incubated at 37°C for 10 min, and centrifuged at 50000 x g for 10 min. The process was repeated and the final pellet was suspended in ice-chilled 50 mM Tris-HCl, pH 7.4. By the radioligand binding method, sites specifically labeled by tritiated 8-hydroxy-2-dipropylamino-1,2,3,4-tetrahydronaphthalene (^3H-8-OH-DPAT) have been identified as 5-HT1A receptors.
Binding of (^3H-8-OH-DPAT) was performed according to the previously described method [Wong et al., J. Neural Transm. 64:251-269 (1985)]. Briefly, synaptosomal membranes isolated from cerebral cortex were incubated at 37°C for 10 min. in 2 ml of 50 mM Tris-HCl, pH 7.4; 10 µM pargyline; 0.6 mM ascorbic acid; 0.4 nM ^3H-8-OH-DPAT; and from […] of test compound. Binding was terminated by filtering samples under reduced pressure through glass fiber (GFB) filters. The filters were washed twice with 5 ml of ice cold buffer and placed in scintillation vials with 10 ml of PCS (Amersham/Searle) scintillation fluid. Radioactivity was measured with a liquid scintillation spectrometer. Unlabeled 8-OH-DPAT at 10 µM was also included in separate samples to establish non-specific binding. Specific binding of ^3H-8-OH-DPAT is defined as the difference of radioactivity bound in the absence and in the presence of 10 µM unlabeled 8-OH-DPAT.
For these compounds which inhibited the binding of ^3H-8-OH-DPAT by less than 50%, the percent of inhibition is given in parenthesis.

IC50 [nM] | Structure (SMILES)
11 | CCCN(CCC)[C@@H]1Cc2c(C(N)=O)ccc3c2[C@H](CN3)C1 [Example 9, (2aR,4S)-4-(di-n-propylamino)-6-aminocarbonyl-1,2,2a,3,4,5-hexahydrobenz[c,d]indole]
2.1 | CCCN(CCC)[C@H]1Cc2c(C(N)=O)ccc3c2[C@@H](CN3)C1 [Example 10, (2aS, 4R)-4-(di-n-propyl)-6-aminocaronyl-1,2,2a,3,4,5-hexahydrobenz[c,d]indole]
5.7 | CCCN(CCC)[C@H]1Cc2c(C(=O)OC)ccc3c2[C@@H](CN3)C1 [Example 11, Methyl (2aS,4R)-4-(Di-n-propylamino)-1,2,2a,3,4,5-hexahydrobenz[c,d]indole-6-carboxylate]
5.1 | CCCN(CCC)[C@H]1Cc2c(C(=O)N(C)C)ccc3c2[C@@H](CN3)C1 [Example 12, (2aS,4R)-N,N-Dimethyl-4-(di-n-propylamino)-1,2,2a,3,4,5-hexahydrobenz[cd]indole-6-carboxamide]

Same assay, conditions: at 100 nanomoles of test compound, 0.4 nM 3H-8-OH-DPAT, read-out: percent of inhibition of binding of 8-OH-DPAT at 100 nanomoles if less than 50%

Structure (SMILES) | inhibition at 0.1 µM [%]
N[C@@H]1Cc2c(Br)ccc3c2[C@@H](C1)CN3C(=O)c1ccccc1 [Example 1, (2aR,4S)-1-benzoyl-4-amino-6-bromo-1,2,2a,3,4,5-hexahydrobenz[cd]indole] | 6
CCCN(CCC)[C@@H]1Cc2c(Br)ccc3c2[C@@H](C1)CN3C(=O)c1ccccc1 [Example 3, (2aR, 4S)-1-Benzoyl-4-(di-n-propyl)-amino-6-bromo-1,2,2a,3,4,5-hexahydrobenz[cd]indole] | 5
CCCN(CCC)[C@@H]1Cc2c(C#N)ccc3c2[C@@H](C1)CN3C(=O)c1ccccc1 [Example 5, (2aR,4S)-1-benzoyl-4-(di-n-propyl)amino-6-cyano-1,2,2a,3,4,5-hexahydrobenz[cd]indole] | 11
CCCN(CCC)[C@@H]1Cc2c(C#N)ccc3c2[C@H](CN3)C1 [Example 7, (2aR,4S)-4-(di-n-propyl)amino-6-cyano-1,2,2a,3,4,5-hexahydrobenz[cd]indole] | 21
